Measurements taken from patent US7101908B2, “Bicyclic carbohydrate compounds useful in the treatment of infections caused by herpesviridae” (Kemin Pharma Europe B.V.B.A., priority 2001, dated 2006).
Values after ≈ are worked out from the molar mass of the structure shown.

Experiments:
CMV AD-169 strain = assay: Plaque reduction assay in HEL cells, CMV AD-169 strain; type: cell-based, human cytomegalovirus; conditions: human embryonic lung fibroblast (HEL) cells; for IC50: Human betaherpesvirus 5, AD169, HEL, 168 h, plaques counted on day 7, read-out: IC50 CMV AD-169 Strain (inhibitory concentration required to reduce virus plaque formation by 50%); for IC50 CMV AD-169 Strain (inhibitory concentration required to reduce virus plaque formation by 50%): plaques counted on day 7
Protocol: (§1) The compounds were screened against various pathogenic viruses and more specific the human cytomegalovirus (CMV). […] After 2 hours of incubation at 37° C., the infected cells were replenished with 0.1 ml of medium containing serial dilutions of the test compound. On day 7 the plaques were counted microscopically after staining the cells with Giemsa's solution. The minimum antiviral concentration was expressed as the dose required to inhibit virus-induced plaque formation by 50%.

CMV Davis strain = assay: Plaque reduction assay in HEL cells, CMV Davis strain; type: cell-based, human cytomegalovirus; conditions: human embryonic lung fibroblast (HEL) cells; for IC50: Human betaherpesvirus 5, HEL, 168 h, plaques counted on day 7, read-out: IC50 CMV David Strain (inhibitory concentration required to reduce virus plaque formation by 50%)
Protocol: as §1

[1] = intravenous ganciclovir; people; cited from earlier work

SMILES | melting point | IC50 (CMV AD-169 strain) | IC50 (CMV Davis strain) | IC50 CMV AD-169 Strain (inhibitory concentration required to reduce virus plaque formation by 50%) (CMV AD-169 strain) | IC50 CMV David Strain (inhibitory concentration required to reduce virus plaque formation by 50%) (CMV Davis strain; plaques counted on day 7) | IV recipients who have to stop treatment because of side effects [1]
CO[C@@H]1[C@@H](OC)[C@H](Cc2ccccc2)O[C@@H]2CO[C@@H](c3ccccc3)O[C@@H]12 [Compound A2] |  | 5 µg/mL (≈ 13.5 µM) | 20 µg/mL (≈ 54 µM) |  |  | 
C#CCO[C@@H]1[C@@H](OCC#C)[C@H](Cc2ccccc2)O[C@@H]2CO[C@@H](c3ccccc3)O[C@@H]12 [Compound A5] | 81 to 83 °C | 0.5 µg/mL (≈ 1.19 µM) | 0.5 µg/mL (≈ 1.19 µM) |  |  | 
Nc1nc(O)c2ncn(COC(CO)CO)c2n1 [Ganciclovir, reference compound] |  | 1.3 µg/mL (≈ 5.09 µM) | 0.5 µg/mL (≈ 1.96 µM) | 2.5 µg/mL (≈ 9.79 µM) |  | More than 10%

More lines, main results first:

melting point | SMILES | IC50 (CMV AD-169 strain) | IC50 (CMV Davis strain) | IC50 CMV AD-169 Strain (inhibitory concentration required to reduce virus plaque formation by 50%) (CMV AD-169 strain) | IC50 CMV David Strain (inhibitory concentration required to reduce virus plaque formation by 50%) (CMV Davis strain; plaques counted on day 7) | IV recipients who have to stop treatment because of side effects [1]
97 to 98 °C | CO[C@@H]1[C@@H](OC)[C@H](c2ccccc2)O[C@@H]2CO[C@@H](c3ccccc3)O[C@@H]12 [Compound A1] | 2.7 µg/mL (≈ 7.58 µM) | 2 µg/mL (≈ 5.61 µM) |  |  | 
87 to 89 °C | CCO[C@@H]1[C@@H](OCC)[C@H](Cc2ccccc2)O[C@@H]2CO[C@@H](c3ccccc3)O[C@@H]12 [Compound A3] | 2.5 µg/mL (≈ 6.27 µM) | 3.2 µg/mL (≈ 8.03 µM) | 2.7 µg/mL (≈ 6.78 µM) | 2.8 µg/mL (≈ 7.03 µM) | 
135 °C | CO[C@@H]1[C@@H](OC)[C@H](c2ccccc2)O[C@@H]2CO[C@@H](c3ccc4ccccc4c3)O[C@@H]12 [Compound A6] | 0.47 µg/mL (≈ 1.16 µM) | 0.8 µg/mL (≈ 1.97 µM) |  |  | 
111 to 112 °C | CO[C@@H]1[C@@H](OC)[C@H](c2ccccc2)O[C@@H]2CO[C@@H](c3ccc(-c4ccccc4)cc3)O[C@@H]12 [Compound A7] | 0.8 µg/mL (≈ 1.85 µM) | 0.6 µg/mL (≈ 1.39 µM) |  |  | 
